Source: patent US10676538B2, “Inhibitors of Staphylococcus pseudintermedius sortase” (priority 2017, dated 2020)
Read-outs that look alike come from different tables or passages of the source.

What was measured:
[1] = test system: S. pseudintermedius recombinant SrtA; assay: in vitro FRET-based functional assay of recombinant SrtA; assay type: biochemical, Staphylococcus pseudintermedius; settings: compared to buffer controls, averages from three independent experiments
Method: Compounds predicted to bind to the active site were identified. Initially, from the 200 highest ranked compounds, twenty were selected. […] The assay to determine the functional activity of recombinant SrtA and its inhibition was performed in 96-well black microtiter plates with clear bottom (Corning, Fisher Scientific, Hampton, N.H.) in a final reaction volume of 200 μl. Fluorescent-quenched bacterial sortase substrate III, Abz/DNP (Abz-LPETG-K(Dnp)-NH2 (GenScript Inc., Piscataway, N.J.) dissolved in isopropanol was used for Km determination. Varying concentrations of the substrate (2.5 μM-200 μM) were incubated at 25° C. with 1 μM of SrtA diluted in assay buffer (50 mM Tris-HCl, 150 mM NaCl, 5 mM CaCl2, and 0.1% Triton X-100, pH 7.5). The increase in fluorescence was measured in a kinetic assay for 20 min at 2 min intervals using a Synergy HTX multimode reader (BioTek, Winooski, Vt.) at wavelengths 320 excitation/420 emission. The initial velocity V0 was determined from the linear portion of the curve and the Km was determined using the Michaelis-Menten equation where V=Vmax[S]/([S]+Km). To measure the effect of inhibitors recombinant SrtA was pre-incubated with varying amounts of the inhibitor at […] and subjected to the same FRET assay.

[2] = test system: S. pseudintermedius isolates; assay: flow cytometry of cell wall-associated Protein A on bacteria grown with inhibitor (indirect SrtA inhibition); assay type: cell-based, Staphylococcus pseudintermedius; settings: compared to control without inhibitor
Method: FIG. 4: […] bacterial isolates 08-3228, 08-1661, NA12, NA16 and NA45 were grown in the presence of inhibitor 1847 until exponential log phase. S. pseudintermedius recombinant SrtA inhibition was measured indirectly by determining the density of cell wall associated Protein A (one of the LPXTG proteins targeted by SrtA) using flow cytometry. Protein A was detected with FITC conjugated chicken anti-protein A (Gallus immunotech, Cary, N.C.). The values represent average from three independent experiments with the standard deviations shown at the top of each bar.
Inhibition of SrtA in bacterial cells was measured indirectly by measuring the decrease in the amount of Protein A on the bacterial surface using flow cytometry. Five representative S. pseudintermedius isolates were tested. […] Isolate NA45 was not affected by compound 1847.

Sortase A = settings: 10 μM SrtA, 4 μM inhibitor

In the case of `O=S(=O)(O)c1ccc(N=Nc2ccccc2)cc1` [Compound 1847], the “inhibition of SrtA” value [1] is reported as 50-80%, the “reduction in the density of cell wall-associated Protein A” value (shortened to “reduction in the density”) ([2]; isolate 06-3228) is reported as 38.7% and the “reduction in the density” value ([2]; isolate 08-1661) is reported as 74.3%. The “reduction in the density” value ([2]; isolate NA12) was 42.8%, the “reduction in the density” value ([2]; isolate NA16) was 89.4% and the “reduction in the density” value ([2]; isolate NA45) was “not affected”. For the same compound, the “melting temperature of 1847-stabilized Sortase A” value (Sortase A; Srt A in His-Tag elution buffer) was 86.56 °C and the “melting temperature of 1847-stabilized Sortase A” value (Sortase A; Srt A in PBS) was 86.81 °C.
`C[N+](C)(C)CCSS(C)(=O)=O.[Br-]` [MTSET, reference compound] was tested, and the “inhibition of SrtA” value [1] was 57.5%.
In the case of `N#Cc1ccc(NS(=O)(=O)Cc2ccccc2)cc1` [STK022091], the “inhibition of SrtA” value [1] is reported as “did not have any detectable inhibitory effect” and the “inhibition of SrtA” value ([1]; listed as SKT022091) is reported as “did not have inhibitory effect”.
In the case of `COc1ccc(N2CCN(S(=O)(=O)Cc3ccc(F)cc3)CC2)cc1` [STL223442], the “inhibition of SrtA” value [1] is reported as 13.75%.
